The values that follow come from patent US6326476A, “Heparin derivatives and process for the preparation thereof” (Pharmacia AB, priority 1991, dated 2001).

The test system of this data set is Sprague-Dawley rats. Conditions: rat, in vivo, 2 mg/kg.

Method: Res 15 191-197 was performed in Sprague-Dawley rats weighing 200-250 g anaesthetized with Mebumal/Stesolid (Dumex A/S Copenhagen). The template device (Simplate, General Diagnostics, Durham, N.C.) was applied longitudinally to the dorsal part of the tail, taking care to avoid large veins. Blood from the wound was then carefully removed every 30 sec, with blotting paper. A minimum of six rats were used for each compound and dose. Bleeding times were measured from the moment the tail was incised until the first arrest of bleeding. The bleeding time was recorded with an accuracy of 30 sec. Two bleeding times were always determined in each rat, viz. 10 min before and 10 min after drug administration, and the results are expressed as the prolongation of bleeding time.

With heparin [Standard heparin], the “Prolongation of bleeding time” value is recorded as 12.8 min.
